According to ChEMBL document CHEMBL1201861, “Genomics of Drug Sensitity in Cancer screening data, Wellcome Trust Sanger Institute”:

How the values were obtained:
GDM-1 = test: cells; format: functional, cell-based, Homo sapiens; conditions: Homo sapiens, GDM-1;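 further: cell viability readout used to measure growth inhibition of human GDM-1 cells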
Description: SANGER: Inhibition of human GDM-1 cell growth in a cell viability assay.

LU-165 = test: cells; format: functional, cell-based, Homo sapiens; conditions: Homo sapiens, LU-165
Description: SANGER: Inhibition of human LU-165 cell growth in a cell viability assay.

BC1 cell line = test: SANGER: Inhibition of human BC-1 cell growth in a cell viability assay.; format: functional, cell-based; conditions: Homo sapiens, BC1
NCI-H524 = test: cells; format: functional, cell-based, Homo sapiens; conditions: Homo sapiens, NCI-H524;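 further: growth inhibition of human NCI-H524 cells, read out through a cell viability assay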
Description: SANGER: Inhibition of human NCI-H524 cell growth in a cell viability assay.

ARH-77 = test: cells; format: functional, cell-based, Homo sapiens; conditions: Homo sapiens, ARH-77;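 further: growth inhibition of ARH-77 cells, read out by a cell viability assay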
Description: SANGER: Inhibition of human ARH-77 cell growth in a cell viability assay.

NCI-H345 = test: cells; format: functional, cell-based, Homo sapiens; conditions: Homo sapiens, NCI-H345;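 further: growth inhibition of NCI-H345 cells measured with a cell viability assay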
Description: SANGER: Inhibition of human NCI-H345 cell growth in a cell viability assay.

SIG-M5 = test: cells; format: functional, cell-based, Homo sapiens; conditions: Homo sapiens, SIG-M5;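 further: cell viability assay read-out, measuring how strongly growth of cultured human SIG-M5 cells is inhibited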
Description: SANGER: Inhibition of human SIG-M5 cell growth in a cell viability assay.

RL95-2 = test: cells; format: functional, cell-based; conditions: Homo sapiens;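 further: RL95-2 growth inhibition determined through a cell viability readout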
Description: SANGER: Inhibition of human RL95-2 cell growth in a cell viability assay.

L-540 = test: cells; format: functional, cell-based, Homo sapiens; conditions: Homo sapiens, L-540;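 further: growth inhibition of the human L-540 cell line, read out with a viability assay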
Description: SANGER: Inhibition of human L-540 cell growth in a cell viability assay.

RPMI-6666 = test: cells; format: functional, cell-based, Homo sapiens; conditions: Homo sapiens, RPMI-6666
Description: SANGER: Inhibition of human RPMI-6666 cell growth in a cell viability assay.

TE-15 = test: cells; format: functional, cell-based, Homo sapiens; conditions: Homo sapiens, TE-15;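 further: cell viability readout of growth inhibition in TE-15 cells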
Description: SANGER: Inhibition of human TE-15 cell growth in a cell viability assay.

NCI-H187 = test: cells; format: functional, cell-based, Homo sapiens; conditions: Homo sapiens, NCI-H187;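 further: growth inhibition of NCI-H187 cells, read out as cell viability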
Description: SANGER: Inhibition of human NCI-H187 cell growth in a cell viability assay.

CMK = test: cells; format: functional, cell-based, Homo sapiens; conditions: Homo sapiens, CMK;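 further: growth inhibition of CMK cells, read out as cell viability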
Description: SANGER: Inhibition of human CMK cell growth in a cell viability assay.

BC-3 = test: cells; format: functional, cell-based, Homo sapiens; conditions: Homo sapiens, BC-3;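 further: cell viability assay measuring growth inhibition of human BC-3 cells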
Description: SANGER: Inhibition of human BC-3 cell growth in a cell viability assay.

SCLC-21H = test: cells; format: functional, cell-based, Homo sapiens; conditions: Homo sapiens, SCLC-21H;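 further: growth inhibition of cultured human SCLC-21H cells, read out with a cell viability assay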
Description: SANGER: Inhibition of human SCLC-21H cell growth in a cell viability assay.

**Q.** Which results are given for `C#Cc1cccc(Nc2ncnc3cc(OCCOC)c(OCCOC)cc23)c1` [ERLOTINIB]?
**A.** IC50 (GDM-1): > 2000 nM; IC50 (LU-165): > 2000 nM; IC50 (BC1 cell line): > 2000 nM; IC50 (NCI-H524): > 2000 nM; IC50 (ARH-77): > 2000 nM; IC50 (NCI-H345): > 2000 nM; IC50 (SIG-M5): > 2000 nM; IC50 (RL95-2): > 2000 nM; IC50 (L-540): > 2000 nM; IC50 (RPMI-6666): > 2000 nM; IC50 (TE-15): > 2000 nM; IC50 (NCI-H187): > 2000 nM; IC50 (CMK): > 2000 nM; IC50 (BC-3): > 2000 nM

**Q.** How did the IC50 (GDM-1) turn out when `COc1cc(-c2nn([C@H]3CC[C@H](N4CCN(C(C)=O)CC4)CC3)c3ncnc(N)c23)ccc1NC(=O)c1cc2ccccc2n1C` was run?
**A.** Its IC50 is over 5120 nM.

**Q.** What about the IC50 (LU-165) of the same molecule?
**A.** Its IC50 is over 5120 nM.

**Q.** What about the IC50 (BC1 cell line) of the same molecule?
**A.** The IC50 was over 5120 nM.

**Q.** And the IC50 (NCI-H524)?
**A.** The IC50 was over 5120 nM.

**Q.** And the IC50 (ARH-77)?
**A.** The IC50 was over 5120 nM.

**Q.** What about the IC50 (SCLC-21H) of the same molecule?
**A.** The IC50 was over 5120 nM.

**Q.** What about the IC50 (NCI-H345) of the same molecule?
**A.** The IC50 was over 5120 nM.

**Q.** What about the IC50 (SIG-M5) of the same molecule?
**A.** Its IC50 is over 5120 nM.

**Q.** What about the IC50 (RL95-2) of the same molecule?
**A.** The IC50 was 379 nM.

**Q.** And the IC50 (L-540)?
**A.** The IC50 was over 5120 nM.

**Q.** What about the IC50 (RPMI-6666) of the same molecule?
**A.** Its IC50 is 1580 nM.

**Q.** What about the IC50 (TE-15) of the same molecule?
**A.** The IC50 was 279 nM.

**Q.** What about the IC50 (NCI-H187) of the same molecule?
**A.** The IC50 was over 5120 nM.

**Q.** And the IC50 (CMK)?
**A.** The IC50 was over 5120 nM.

**Q.** What about the IC50 (BC-3) of the same molecule?
**A.** Its IC50 is over 5120 nM.

**Q.** Which results are given for `CC(=O)O[C@H]1C(=O)[C@@]2(C)[C@H]([C@H](OC(=O)c3ccccc3)[C@]3(O)C[C@H](OC(=O)[C@H](O)[C@@H](NC(=O)c4ccccc4)c4ccccc4)C(C)=C1C3(C)C)[C@]1(OC(C)=O)CO[C@@H]1C[C@@H]2O` [PACLITAXEL]?
**A.** IC50 (GDM-1): > 102 nM; IC50 (LU-165): > 102 nM; IC50 (BC1 cell line): > 102 nM; IC50 (NCI-H524): 35.3 nM; IC50 (ARH-77): 26 nM; IC50 (SCLC-21H): 58.8 nM; IC50 (NCI-H345): > 102 nM; IC50 (SIG-M5): 3.27 nM; IC50 (RL95-2): 0.668 nM; IC50 (L-540): 46.4 nM; IC50 (RPMI-6666): 21.5 nM; IC50 (TE-15): 0.287 nM; IC50 (NCI-H187): > 102 nM; IC50 (CMK): 27.3 nM; IC50 (BC-3): 23.4 nM

**Q.** With `CCN(CC)CCNC(=O)c1c(C)[nH]c(/C=C2\C(=O)Nc3ccc(F)cc32)c1C` [SUNITINIB] as the molecule, how does the IC50 (GDM-1) read?
**A.** Its IC50 is over 8000 nM.

**Q.** And the IC50 (LU-165)?
**A.** The IC50 was over 8000 nM.

**Q.** And the IC50 (BC1 cell line)?
**A.** Its IC50 is 7250 nM.

**Q.** And the IC50 (NCI-H524)?
**A.** The IC50 was over 8000 nM.

**Q.** And the IC50 (ARH-77)?
**A.** Its IC50 is 7540 nM.

**Q.** What about the IC50 (SCLC-21H) of the same molecule?
**A.** Its IC50 is over 8000 nM.

**Q.** And the IC50 (NCI-H345)?
**A.** Its IC50 is over 8000 nM.

**Q.** What about the IC50 (SIG-M5) of the same molecule?
**A.** The IC50 was 1370 nM.

**Q.** What about the IC50 (RL95-2) of the same molecule?
**A.** Its IC50 is 2110 nM.

**Q.** What about the IC50 (L-540) of the same molecule?
**A.** Its IC50 is over 8000 nM.

**Q.** What about the IC50 (RPMI-6666) of the same molecule?
**A.** The IC50 was 3540 nM.

**Q.** And the IC50 (TE-15)?
**A.** Its IC50 is 508 nM.

**Q.** And the IC50 (NCI-H187)?
**A.** The IC50 was over 8000 nM.

**Q.** What about the IC50 (CMK) of the same molecule?
**A.** Its IC50 is 1960 nM.

**Q.** And the IC50 (BC-3)?
**A.** Its IC50 is over 8000 nM.
